Measurements taken from patent publication US20230346827A1 (priority 2020, published 2023).

Tested on: rats subjected to sTBI
Assay: sTBI rats, LMW-DS 1, 5, 15 mg/kg s.c. 30 min post-TBI: HPLC of brain energy metabolites, antioxidants, oxidative/nitrosative stress biomarkers (Example 4)
Format: in vivo, rat
Procedure: Male Wistar rats (n=160) of 300-350 g body weight were used in this study. They were fed with standard laboratory diet and water ad libitum in a controlled environment.
As the accepted anesthetic mixture, animals received 35 mg/kg b.w. ketamine and 0.25 mg/kg body weight midazolam by intramuscular injection. Diffuse sTBI was induced according to the “weight drop” impact acceleration model set up by Marmarou et al. J. Neurosurg. 1994, 80: 291-300. This model causes diffuse axonal injury and it is able to reproduce the physical and mechanical characteristics of the diffuse TBI in humans.
Severe TBI was induced by dropping a 450 g weight from 2 meters height onto the rat head protected by a helmet (metal disk previously fixed on the skull using dental cement) in order to uniformly distribute the mechanical force to the brain. Rats were placed prone on a bed of specific polyurethane foam inserted in a special container; this foam dissipates the major part of the potential energy (deriving from the mechanical forces) and prevents any rebound of the animal after the impact that could produce spinal damages.
After 2 or 7 days from TBI induction, rats were anesthetized again and then immediately sacrificed. These time points are coincident with the worst biochemical derangement (2 days) or, in the case of a mildly injured brain, with a full metabolic recovery (7 days).
The drug treatment consisted in a subcutaneous injection of 0.5 ml of LMW-DS (ILB®, Tikomed, Viken, Sweden, WO 2016/076780) and administered at 3 different concentrations (1, 5 and 15 mg/kg body weight), according to the schematic protocol described below. Sham-operated animals underwent the same procedure of anesthesia but TBI and were used as the control group.
Rats subjected to sTBI and receiving a single administration of LMW-DS after 30 minutes post-TBI, with sacrifice at 2 days post-TBI. Animals were divided in the following subgroups: • 1. 12 animals subjected to sTBI and treated with 1 mg/kg b.w. LMW-DS • 2. 12 animals subjected to sTBI and treated with 5 mg/kg b.w. LMW-DS • 3. 12 animals subjected to sTBI and treated with 15 mg/kg b.w. LMW-DS
Rats subjected to sTBI and receiving a single administration of LMW-DS after 30 minutes post-TBI, with sacrifice at 7 days post-TBI. Animals were divided in the following subgroups: • 1. 12 animals subjected to sTBI and treated with 1 mg/kg b.w. LMW-DS • 2. 12 animals subjected to sTBI and treated with 5 mg/kg b.w. LMW-DS • 3. 12 animals subjected to sTBI and treated with 15 mg/kg b.w. LMW-DS
Rats (n = 12) subjected to sTBI and receiving repeated administrations of the maximal dose of LMW-DS (15 mg/kg b.w.) after 30 minutes, 3 days and 5 days post-TBI, with sacrifice at 7 days post-TBI. Four additional rats were used for the histo-morphological studies. Total rats in this group: n=16
To minimize metabolite loss, an in vivo craniectomy was performed in all animals during anesthesia. The rat skull was carefully removed, the brain was exposed, sharply cut along the sagittal fissure and the two hemispheres were separated. The hemispheres dedicated to biochemical analyses were freeze-clamped by aluminum tongues pre-cooled in liquid nitrogen and then immersed in liquid nitrogen. The freeze-clamping procedure was introduced to accelerate freezing of the tissue, thus minimizing potential metabolite loss.
Tissue homogenization for metabolite analyses was effected as described below. After the wet weight (w.w.) determination, the frozen hemispheres were placed into 7 ml of ice-cold, nitrogen-saturated, precipitating solution (1:10 w/v) composed by CH3CN + 10 mM KH2PO4, pH 7.40, (3:1; v:v), and the homogenization was performed using an Ultra-Turrax homogenizer set at 24,000 rpm/min (Janke & Kunkel, Staufen, Germany). […]

[1] = 15 mg/kg, 7 d post-sTBI, adimensional ratio

With sodium salt of dextran sulfate [LMW-DS] the GDP (15 mg/kg, 2 d post-sTBI) was 194.61 ± 26.88 nmol/g w.w, the “GDP Glucose” value (15 mg/kg, 2 d post-sTBI) was 84.24 ± 37.54 nmol/g w.w and the GMP (15 mg/kg, 2 d post-sTBI) was 178.88 ± 22.46 nmol/g w.w. The GSH (15 mg/kg, 2 d post-sTBI) was 2418.94 ± 352.75 nmol/g w.w, the GTP (15 mg/kg, 2 d post-sTBI) was 179.07 ± 18.89 nmol/g w.w and the GUANINE (15 mg/kg, 2 d post-sTBI) was 1.61 ± 0.40 nmol/g w.w. For the same substance, the GUANOSINE (15 mg/kg, 2 d post-sTBI) was 24.35 ± 4.05 nmol/g w.w, the HYPOXANTHINE (15 mg/kg, 2 d post-sTBI) was 6.82 ± 1.12 nmol/g w.w and the IMP (15 mg/kg, 2 d post-sTBI) was 68.95 ± 12.98 nmol/g w.w. For the same substance, the INOSINE (15 mg/kg, 2 d post-sTBI) was 142.91 ± 18.63 nmol/g w.w, the MDA (15 mg/kg, 2 d post-sTBI) was 18.28 ± 2.98 nmol/g w.w and the Malonyl-CoA (15 mg/kg, 2 d post-sTBI) was 28.73 ± 6.09 nmol/g w.w. The NADH (15 mg/kg, 2 d post-sTBI) was 10.83 ± 1.58 nmol/g w.w, the NADPH (15 mg/kg, 2 d post-sTBI) was 8.93 ± 0.74 nmol/g w.w and the “NADP^+” value (15 mg/kg, 2 d post-sTBI) was 17.75 ± 4.06 nmol/g w.w. For the same substance, the “NAD^+” value (15 mg/kg, 2 d post-sTBI) was 475.32 ± 80.91 nmol/g w.w, the NO2 (15 mg/kg, 2 d post-sTBI) was 72.29 ± 8.71 nmol/g w.w and the NO3 (15 mg/kg, 2 d post-sTBI) was 56.50 ± 12.30 nmol/g w.w. The UDP (15 mg/kg, 2 d post-sTBI) was 80.00 ± 8.20 nmol/g w.w, the UDP-Gal (15 mg/kg, 2 d post-sTBI) was 116.34 ± 9.71 nmol/g w.w and the “UDP-GalNac” value (15 mg/kg, 2 d post-sTBI) was 22.37 ± 3.30 nmol/g w.w. The UDP-Glc (15 mg/kg, 2 d post-sTBI) was 43.41 ± 6.43 nmol/g w.w, the UDP-GlcNac (15 mg/kg, 2 d post-sTBI) was 108.74 ± 9.90 nmol/g w.w and the UMP (15 mg/kg, 2 d post-sTBI) was 147.53 ± 20.38 nmol/g w.w. The URACIL (15 mg/kg, 2 d post-sTBI) was 15.55 ± 3.04 nmol/g w.w, the “URIC ACID” value (15 mg/kg, 2 d post-sTBI) was 26.00 ± 5.33 nmol/g w.w and the URIDINE (15 mg/kg, 2 d post-sTBI) was 87.55 ± 15.41 nmol/g w.w. It also gave a UTP (15 mg/kg, 2 d post-sTBI) of 108.21 ± 16.99 nmol/g w.w, an XANTHINE (15 mg/kg, 2 d post-sTBI) of 13.87 ± 1.44 nmol/g w.w and a β-PSEUDOURIDINE (15 mg/kg, 2 d post-sTBI) of 7.84 ± 1.57 nmol/g w.w. For the same substance, the “NAD^+/NADH” value (15 mg/kg, 2 d post-sTBI, adimensional ratio) was 44.40 ± 7.67, the ADENOSINE (15 mg/kg, 7 d post-sTBI) was 55.95 ± 41.44 nmol/g w.w and the ADP (15 mg/kg, 7 d post-sTBI) was 276.83 ± 36.87 nmol/g w.w. The ADP-Ribose (15 mg/kg, 7 d post-sTBI) was 19.21 ± 4.82 nmol/g w.w, the AMP (15 mg/kg, 7 d post-sTBI) was 50.50 ± 3.97 nmol/g w.w and the “ASCORBIC ACID” value (15 mg/kg, 7 d post-sTBI) was 2853.35 ± 343.64 nmol/g w.w. For the same substance, the ATP (15 mg/kg, 7 d post-sTBI) was 1846.63 ± 148.55 nmol/g w.w, the Acetyl-CoA (15 mg/kg, 7 d post-sTBI) was 38.60 ± 6.57 nmol/g w.w and the CDP choline (15 mg/kg, 7 d post-sTBI) was 10.06 ± 3.23 nmol/g w.w. For the same substance, the CMP (15 mg/kg, 7 d post-sTBI) was 47.10 ± 20.04 nmol/g w.w, the CREATININE (15 mg/kg, 7 d post-sTBI) was 5.23 ± 0.92 nmol/g w.w and the CTP (15 mg/kg, 7 d post-sTBI) was 96.44 ± 25.54 nmol/g w.w. For the same substance, the CYTIDINE (15 mg/kg, 7 d post-sTBI) was 33.06 ± 11.63 nmol/g w.w, the CYTOSINE (15 mg/kg, 7 d post-sTBI) was 13.87 ± 2.98 nmol/g w.w and the CoA-SH (15 mg/kg, 7 d post-sTBI) was 64.93 ± 8.33 nmol/g w.w. For the same substance, the GDP (15 mg/kg, 7 d post-sTBI) was 122.07 ± 13.95 nmol/g w.w, the “GDP Glucose” value (15 mg/kg, 7 d post-sTBI) was 101.65 ± 11.89 nmol/g w.w and the GMP (15 mg/kg, 7 d post-sTBI) was 41.55 ± 19.66 nmol/g w.w. The GSH (15 mg/kg, 7 d post-sTBI) was 2390.89 ± 315.16 nmol/g w.w, the GTP (15 mg/kg, 7 d post-sTBI) was 479.98 ± 43.64 nmol/g w.w and the GUANINE (15 mg/kg, 7 d post-sTBI) was 5.27 ± 2.24 nmol/g w.w. It also gave a GUANOSINE (15 mg/kg, 7 d post-sTBI) of 20.91 ± 4.36 nmol/g w.w, an HYPOXANTHINE (15 mg/kg, 7 d post-sTBI) of 10.21 ± 2.97 nmol/g w.w and an IMP (15 mg/kg, 7 d post-sTBI) of 74.70 ± 19.13 nmol/g w.w. It also gave an INOSINE (15 mg/kg, 7 d post-sTBI) of 104.41 ± 11.72 nmol/g w.w, an MDA (15 mg/kg, 7 d post-sTBI) of 6.23 ± 1.03 nmol/g w.w and a Malonyl-CoA (15 mg/kg, 7 d post-sTBI) of 7.98 ± 1.44 nmol/g w.w. For the same substance, the NADH (15 mg/kg, 7 d post-sTBI) was 11.65 ± 1.63 nmol/g w.w, the NADPH (15 mg/kg, 7 d post-sTBI) was 6.66 ± 1.55 nmol/g w.w and the “NADP^+” value (15 mg/kg, 7 d post-sTBI) was 23.75 ± 8.72 nmol/g w.w. The “NAD^+” value (15 mg/kg, 7 d post-sTBI) was 491.52 ± 69.61 nmol/g w.w, the NO2 (15 mg/kg, 7 d post-sTBI) was 110.72 ± 23.99 nmol/g w.w and the NO3 (15 mg/kg, 7 d post-sTBI) was 161.99 ± 27.67 nmol/g w.w. For the same substance, the UDP (15 mg/kg, 7 d post-sTBI) was 37.91 ± 5.33 nmol/g w.w, the UDP-Gal (15 mg/kg, 7 d post-sTBI) was 137.57 ± 9.46 nmol/g w.w and the UDP-GalNac (15 mg/kg, 7 d post-sTBI) was 17.91 ± 5.13 nmol/g w.w. It also gave a UDP-Glc (15 mg/kg, 7 d post-sTBI) of 62.97 ± 12.80 nmol/g w.w, a UDP-GlcNac (15 mg/kg, 7 d post-sTBI) of 67.47 ± 23.34 nmol/g w.w and a UMP (15 mg/kg, 7 d post-sTBI) of 181.82 ± 35.22 nmol/g w.w. For the same substance, the URACIL (15 mg/kg, 7 d post-sTBI) was 15.92 ± 3.27 nmol/g w.w, the “URIC ACID” value (15 mg/kg, 7 d post-sTBI) was 8.60 ± 2.05 nmol/g w.w and the URIDINE (15 mg/kg, 7 d post-sTBI) was 134.04 ± 31.76 nmol/g w.w. For the same substance, the UTP (15 mg/kg, 7 d post-sTBI) was 127.42 ± 22.32 nmol/g w.w, the XANTHINE (15 mg/kg, 7 d post-sTBI) was 12.71 ± 3.60 nmol/g w.w and the β-PSEUDOURIDINE (15 mg/kg, 7 d post-sTBI) was 63.77 ± 11.83 nmol/g w.w. For the same substance, the ATP/ADP [1] was 6.76 ± 0.86, the “NAD+/NADH” value [1] was 42.51 ± 5.26 and the “whole brain NAA” value (5 or 15 mg/kg b.w., 2 days post impact) was “significantly higher than values found in sTBI rats”. The “ATP levels, % lower than the value of controls” value (7 days post impact) was 16%, the “NAA concentration, % lower than the value of controls” value (7 days post impact) was 16% and the “whole brain NAA” value (increasing single doses or repeat maximal dose, 7 days post sTBI) was “dose dependent increase”.
